The values that follow come from patent US12466834B2, “Imidazodiazepinediones and methods of use thereof” (GFB (ABC), LLC, priority 2018, dated 2025).

This test concerns the target T1, human TRPC5 (Homo sapiens, UniProt Q9UL62).
T1 construct: expressed in transfected cells
T1 sequence (Q9UL62 1-973): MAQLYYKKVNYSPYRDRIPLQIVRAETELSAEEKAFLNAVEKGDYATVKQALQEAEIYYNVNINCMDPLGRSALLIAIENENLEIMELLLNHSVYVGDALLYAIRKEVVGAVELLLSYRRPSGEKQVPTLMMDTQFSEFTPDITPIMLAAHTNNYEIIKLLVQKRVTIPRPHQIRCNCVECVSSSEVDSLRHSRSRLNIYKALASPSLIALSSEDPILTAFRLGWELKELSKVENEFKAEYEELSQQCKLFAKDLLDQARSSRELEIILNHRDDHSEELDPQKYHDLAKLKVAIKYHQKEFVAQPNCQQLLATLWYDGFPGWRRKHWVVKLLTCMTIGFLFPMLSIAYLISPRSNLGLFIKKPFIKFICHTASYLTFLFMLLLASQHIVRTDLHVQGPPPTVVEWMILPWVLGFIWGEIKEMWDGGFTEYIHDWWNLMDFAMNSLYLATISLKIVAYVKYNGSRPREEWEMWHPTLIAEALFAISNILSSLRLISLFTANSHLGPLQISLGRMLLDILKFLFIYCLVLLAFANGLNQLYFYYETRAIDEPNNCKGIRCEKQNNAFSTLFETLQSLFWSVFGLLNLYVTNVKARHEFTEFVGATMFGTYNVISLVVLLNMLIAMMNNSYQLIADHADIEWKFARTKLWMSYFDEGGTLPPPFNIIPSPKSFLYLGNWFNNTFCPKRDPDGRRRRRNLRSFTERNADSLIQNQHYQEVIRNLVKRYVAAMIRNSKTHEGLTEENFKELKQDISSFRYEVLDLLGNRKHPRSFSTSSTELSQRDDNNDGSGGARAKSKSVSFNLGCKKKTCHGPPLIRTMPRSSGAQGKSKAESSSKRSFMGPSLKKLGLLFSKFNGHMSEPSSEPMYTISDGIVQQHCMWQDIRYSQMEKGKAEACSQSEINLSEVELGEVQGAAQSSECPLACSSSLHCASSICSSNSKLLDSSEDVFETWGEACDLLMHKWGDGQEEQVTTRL
Description: FLIPR calcium assay, inhibition of riluzole-activated TRPC5 calcium response. The test is classed as cell-based. The note with it: ICLN-1633 cells; riluzole 30 μM stimulation; Fluo-4 calcium response; read-out: Inhibitor Potency Range (FLIPR). The protocol:
ICLN-1633 cells (HEK-TREx hTRPC5) expressing TRPC5 were generated as follows. Commercially available HekTrex-293 cells were seeded at 0.7×10^6 cells/well in a 1×6-well plate 24 hrs prior to transfection using 2 mL cell growth media containing no antibiotics (1× DMEM/high glucose (Hyclone #SH30022.02); 10% fetal bovine serum (Sigma) 2 mM sodium pyruvate, 10 mM HEPES). The human TRPC5 coding sequence (NM_012471 with a silent T478C mutation) was cloned into pcDNA5/TO (Invitrogen; Cat No. V103320) using hygromycin as the resistance gene and the plasmid (SEQ ID NO:1) propagated using T-Rex-293 cells (Invitrogen; Cat No. R71007) following manufacturer's directions. On day 2, 2 μg of plasmid DNA plus 6 μl of Xtreme-GENE HP reagent in Optimem (200 μl total volume) was prepared and incubated for 15 min at room temperature. This plasmid solution was then gently overlayed dropwise onto each well and the plate was gently swirled to mix complex with the media for approximately 30 seconds. Transfected cells were incubated at 37° C. in a 10% CO2 incubator for 24 hrs. The transfected cells were harvested and transferred into 2×150 mm dishes containing cell growth media with no antibiotics at 37° C.
Compounds were made up to, or supplied as a 10 mM stock solution generally using DMSO as the vehicle. 10-point dose response curves were generated using the Echo-550 acoustic dispenser. Compound source plates were made by serially diluting compound stocks to create 10 mM, 1 mM, and 0.1 mM solutions in DMSO into Echo certified LDV plates. The Echo then serially spotted 100% DMSO stock solutions into source dose response plates to generate a 4-fold dilution scheme. 100% DMSO was added to the spotted dose response plates to bring the final volume to 5 μl. 300 nl of the dose response stock plate was then spotted into pre-incubation and stimulation assay plates. 50 μl of pre-incubation buffer and 100 μl of stimulation buffer was then added to the plates resulting in a final assay test concentration range of 30 μM to 0.0001 μM with a final DMSO concentration of 0.3%.
Human ICLN-1633 cells expressing were plated onto 384 well, black poly-D-lysine-coated microplates and maintained in TRPC5 growth media the day prior to use for experiments. TRPC5 expression was induced by the application of 1 μg/mL tetracycline at the time of plating. Media was removed from the plates and 10 μl of 4 μM of Fluo-4 AM (mixed with equal volume of Pluronic F-127) in Earls's Balanced Salt Solution (EBSS) was added to the cells. Cells were incubated at room temperature, protected from light, for 60-90 minutes. After the incubation period, the dye was removed and replaced with 10 μl of EBSS. Cell, pre-incubation and stimulation plates were loaded onto the FLIPR-II and the assay was initiated. The FLIPR measured a 10 second baseline and then added 10 μl of 2× compounds (or controls). Changes in fluorescence were monitored for an additional 5 minutes. After the 5 minute pre-incubation, 20 μl of 2× riluzole (with 1× compound or controls) was added to the cell plate. The final riluzole stimulation concentration in the assay was 30 μM. After the riluzole addition, changes in fluorescence were monitored for an additional 5 minutes. Reduction in the riluzole-activated calcium response relative to control wells was reported as inhibition. A compound-mediated increase in the riluzole response relative to control riluzole response (no test agent present) with no enhancement of calcium entry during preincubation phase was reported as an agonist response.
Compound inhibition of TRPC5 calcium response was determined as follows. After the riluzole addition, fluorescence was monitored for a 5-minute period. For inhibition, the maximum relative fluorescence response (minus the control response of 1 μM of an internal control compound known to maximally block TRPC5 calcium response, the “REF INHIB” in the formula below) was captured and exported from the FLIPR. […]
As to `C[C@@H]1C(=O)N(C)c2nc(Oc3cccc(F)c3)n(Cc3ccc(Cl)cc3)c2C(=O)N1CCCO` (single isomer, unassigned) [Compound 19], the IC50 is more than 10000 nM.

As for `O=C1c2c(nc(Oc3cccc(OC(F)(F)F)c3)n2Cc2ccc(Cl)cc2)N2CCC[C@H]2C(=O)N1CCCO` (single isomer, unassigned) [Compound 22], the IC50 is more than 10000 nM.

Regarding `O=C1c2c(nc(Oc3cccc(OC(F)(F)F)c3)n2Cc2ccc(Cl)cc2)N2CCC[C@@H]2C(=O)N1CCCO` (single isomer, unassigned) [Compound 23], the IC50 fell in the range of 1 to 1000 nM.

As to `CN1CC(=O)N(CCCO)C(=O)c2c1nc(Oc1cccc(OC(F)(F)F)c1)n2Cc1ccc(Cl)cc1` [Compound 21, 1-[(4-chlorophenyl)methyl]-7-(3-hydroxypropyl)-4-methyl-2-[3-(trifluoromethoxy)phenoxy]-1H,4H,5H,6H,7H,8H-imidazo[4,5-e][1,4]diazepine-6,8-dione], the IC50 lay in the range of 1 to 1000 nM.
